Results published in patent US20250092065A1, “2-(INDAZOL-5-YL)-6-(PIPERIDIN-4-YL)-1,7-NAPHTHYRIDINE DERIVATIVES AND RELATED COMPOUNDS AS MODULATORS FOR SPLICING NUCLEIC ACIDS AND FOR THE TREATMENT OF PROLIFERATIVE DISEASES” (REMIX THERAPEUTICS INC., priority 2022, published 2025).
Where a name gives a salt, the structure may show the parent alone. Read-outs that look alike come from different tables or passages of the source.

Legend:
MYB mRNA = experiment: RT-qPCR splicing assay, MYB mRNA canonical (CJ) and alternative (AJ) junction; assay type: cell-based, human; conditions: Homo sapiens; for AC50: MYB alternative junction mRNA, read-out: MYB AJ (increase in AJ mRNA, AC50)
In short: (§1)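 Junction-specific RT-qPCR read-out: CJ and AJ isoform levels, housekeeper-normalized (GAPDH/GUSB/PPIA), ΔΔCt vs DMSO, converted to RQ then % response. Cells: A673 (DMEM/10% FBS, adhered 24 h) or K562 (IMDM/10% FBS). Compound 11-pt 3-fold, top 10 uM, 24 h, 37 °C.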

SMN2 mRNA = experiment: RT-qPCR splicing assay, SMN2 mRNA; assay type: cell-based, human; conditions: Homo sapiens, canonical junction qPCR panel, Table 4; read-out: SMN2 IC50 (decrease in CJ mRNA levels)
In short: as §1

K562 cells = experiment: Cell Titer Glo 2.0 cell viability (toxicity) assay, K562; conditions: 500 cells/well, 72 hours
[1] = MYB canonical junction mRNA, RT-qPCR, read-out: MYB CJ (decrease in CJ mRNA levels, IC50)
[2] = canonical junction qPCR panel, Table 4, read-out: MYB IC50 (decrease in CJ mRNA levels)

Row | Structure (SMILES) | IC50 (MYB mRNA; [1]) | IC50 (MYB mRNA; [2]) | IC50 (SMN2 mRNA) | AC50 (MYB mRNA; RT-qPCR) | Effect of Exemplary Compounds on Cell Viability, K562 (K562 cells)
1 | CNC(=O)c1nc(-c2cc3cn(C)nc3c(C)c2O)nc2ccc(N3CCNCC3)nc12 [Compound 533, 2-(6-hydroxy-2,7-dimethylindazol-5-yl)-N-methyl-6-(piperazin-1-yl)pyrido[3,2-d]pyrimidine-4-carboxamide] | 0.1 to 1 µM | 0.1 to 1 µM | < 0.1 µM | 0.1 to 1 µM | B (B represents 100-1000 nM)
2 | CNC(=O)c1nc(-c2cc3cn(C)nc3c(C)c2O)nc2ccc(N3C[C@@H](C)N[C@@H](C)C3)nc12 [Compound 534, 6-[(3R,5S)-3,5-dimethylpiperazin-1-yl]-2-(6-hydroxy-2,7-dimethylindazol-5-yl)-N-methylpyrido[3,2-d]pyrimidine-4-carboxamide] | 0.1 to 1 µM | 0.1 to 1 µM | < 0.1 µM | 0.1 to 1 µM | B (B represents 100-1000 nM)
3 | CCNC(=O)c1nc(-c2cc3cn(C)nc3c(C)c2O)nc2ccc(N3C[C@@H](C)N[C@@H](C)C3)cc12 [Compound 535, 6-[(3R,5S)-3,5-dimethylpiperazin-1-yl]-N-ethyl-2-(6-hydroxy-2,7-dimethylindazol-5-yl)quinazoline-4-carboxamide] | < 0.1 µM | < 0.1 µM | < 0.1 µM | < 0.1 µM | A (A represents <100 nM)
4 | CNC(=O)c1nc(-c2cc3cn(C)nc3c(C)c2O)nc2ccc(N3CC[C@@H](NC)C3)cc12 [Compound 536, 2-(6-hydroxy-2,7-dimethylindazol-5-yl)-N-methyl-6-[(3R)-3-(methylamino)pyrrolidin-1-yl]quinazoline-4-carboxamide] | < 0.1 µM | < 0.1 µM | < 0.1 µM | < 0.1 µM | A (A represents <100 nM)
5 | CNC(=O)c1nc(-c2cc3cn(C)nc3c(C)c2O)nc2ccc(N3CC[C@H](NC)C3)cc12 [Compound 537, 2-(6-hydroxy-2,7-dimethylindazol-5-yl)-N-methyl-6-[(3S)-3-(methylamino)pyrrolidin-1-yl]quinazoline-4-carboxamide] | < 0.1 µM | < 0.1 µM | < 0.1 µM | < 0.1 µM | A (A represents <100 nM)
6 | Cc1c(O)c(-c2nc(-c3c[nH]nn3)c3cc(N4CCNCC4)ccc3n2)cc2cn(C)nc12 [Compound 538, 2,7-dimethyl-5-[6-(piperazin-1-yl)-4-(1H-1,2,3-triazol-4-yl)quinazolin-2-yl]indazol-6-ol hydrochloride] | 1 to 10 µM | 1 to 10 µM | 0.1 to 1 µM | 1 to 10 µM | C (C represents 1000-9999 nM)
7 | Cc1c(O)c(-c2nc(C(=O)NC(C)C)c3cc(N4C[C@@H](C)N[C@@H](C)C4)ccc3n2)cc2cn(C)nc12 [Compound 539, 6-[(3R,5S)-3,5-dimethylpiperazin-1-yl]-2-(6-hydroxy-2,7-dimethylindazol-5-yl)-N-isopropylquinazoline-4-carboxamide] | < 0.1 µM | < 0.1 µM | < 0.1 µM | < 0.1 µM | A (A represents <100 nM)
8 | Cc1c(O)c(-c2nc(C(=O)NC3CCC3)c3cc(N4C[C@@H](C)N[C@@H](C)C4)ccc3n2)cc2cn(C)nc12 [Compound 540] | < 0.1 µM | < 0.1 µM | < 0.1 µM | < 0.1 µM | A (A represents <100 nM)
9 | CN[C@@H]1CCN(c2ccc3nc(-c4cc5cn(C)nc5c(F)c4O)nc(C4CC4)c3c2)C1 [Compound 543, 5-{4-cyclopropyl-6-[(3R)-3-(methylamino)pyrrolidin-1-yl]quinazolin-2-yl}-7-fluoro-2-methylindazol-6-ol] | < 0.1 µM | < 0.1 µM | < 0.1 µM | < 0.1 µM | A (A represents <100 nM)
10 | Cc1cn2cc(-c3ccc4cc(N5C[C@@H](C)N[C@@H](C)C5)cc(F)c4n3)cc(F)c2n1 [Compound 544, 6-[(3R,5S)-3,5-dimethylpiperazin-1-yl]-8-fluoro-2-{8-fluoro-2-methylimidazo[1,2-a]pyridin-6-yl}quinoline] | 0.1 to 1 µM | 0.1 to 1 µM | < 0.1 µM | 0.1 to 1 µM | B (B represents 100-1000 nM)
11 | Cc1c(O)c(-c2ncc3cc(N4C[C@H](C)N[C@@H](C)C4)ccc3n2)cc2cn(C)nc12 [Compound 660, 5-{6-[(3S,5S)-3,5-dimethylpiperazin-1-yl]quinazolin-2-yl}-2,7-dimethylindazol-6-ol] | < 0.1 µM | < 0.1 µM | < 0.1 µM | < 0.1 µM | A (A represents <100 nM)
12 | CNC(=O)c1nc(-c2cc3cn(C)nc3c(C)c2O)nc2ccc(N3CCC(N4CCC4)CC3)cc12 [Compound 706] | < 0.1 µM | < 0.1 µM | < 0.1 µM | < 0.1 µM | A (A represents <100 nM)
13 | Cc1cc(N2C[C@@H](C)N[C@@H](C)C2)cc2c(Cl)cc(-c3cc4cn(C)nc4c(F)c3O)nc12 [Compound 723, 5-{4-chloro-6-[(3R,5S)-3,5-dimethylpiperazin-1-yl]-8-methylquinolin-2-yl}-7-fluoro-2-methylindazol-6-ol] | < 0.1 µM | < 0.1 µM | < 0.1 µM | < 0.1 µM | A (A represents <100 nM)
14 | CNC(=O)c1nc(-c2cc3cn(C)nc3c(F)c2O)nc2ccc(N3CCNC4(CC4)C3)cc12 [Compound 728, 6-{4,7-diazaspiro[2.5]octan-7-yl}-2-(7-fluoro-6-hydroxy-2-methylindazol-5-yl)-N-methylquinazoline-4-carboxamide] | < 0.1 µM | < 0.1 µM | < 0.1 µM | < 0.1 µM | A (A represents <100 nM)

Further lines, with some results ahead:

Row | IC50 (MYB mRNA; [1]) | IC50 (MYB mRNA; [2]) | IC50 (SMN2 mRNA) | Structure (SMILES) | AC50 (MYB mRNA; RT-qPCR) | Effect of Exemplary Compounds on Cell Viability, K562 (K562 cells)
15 | 1 to 10 µM | 1 to 10 µM | 1 to 10 µM | Cc1c(O)c(-c2nc(-c3nn[nH]n3)c3cc(N4CCNCC4)ccc3n2)cc2cn(C)nc12 [Compound 541, 2,7-dimethyl-5-[6-(piperazin-1-yl)-4-(2H-1,2,3,4-tetrazol-5-yl)quinazolin-2-yl]indazol-6-ol] | 1 to 10 µM | C (C represents 1000-9999 nM)
16 | < 0.1 µM | < 0.1 µM | < 0.1 µM | C[C@@H]1CN(c2ccc3nc(-c4cc5cn(C)nc5c(F)c4O)nc(C4CC4)c3c2)C[C@H](C)N1 [Compound 542, 5-{4-cyclopropyl-6-[(3R,5S)-3,5-dimethylpiperazin-1-yl]quinazolin-2-yl}-7-fluoro-2-methylindazol-6-ol] | < 0.1 µM | B (B represents 100-1000 nM)
17 | < 0.1 µM | < 0.1 µM | < 0.1 µM | CNC(=O)c1nc(-c2cc3cn(C)nc3c(C)c2O)nc2ccc(N3C[C@H](C)N[C@@H](C)C3)cc12 [Compound 652, 6-[(3S,5S)-3,5-dimethylpiperazin-1-yl]-2-(6-hydroxy-2,7-dimethylindazol-5-yl)-N-methylquinazoline-4-carboxamide] | < 0.1 µM | A (A represents <100 nM)
18 | < 0.1 µM | < 0.1 µM | < 0.1 µM | C[C@@H]1CN(c2ccc3nc(-c4cc5cn(C)nc5c(F)c4O)nc(C#N)c3c2)C[C@H](C)N1 [Compound 707, 6-[(3R,5S)-3,5-dimethylpiperazin-1-yl]-2-(7-fluoro-6-hydroxy-2-methylindazol-5-yl) quinazoline-4-carbonitrile] | < 0.1 µM | A (A represents <100 nM)
19 | < 0.1 µM | < 0.1 µM | < 0.1 µM | C[C@@H]1CN(c2ccc3nc(-c4cc5cn(C)nc5c(F)c4O)nc(C(N)=O)c3c2)C[C@H](C)N1 [Compound 712, 6-[(3R,5S)-3,5-dimethylpiperazin-1-yl]-2-(7-fluoro-6-hydroxy-2-methylindazol-5-yl) quinazoline-4-carboxamide] | < 0.1 µM | A (A represents <100 nM)
20 | < 0.1 µM | < 0.1 µM | < 0.1 µM | CC(=O)c1nc(-c2cc3cn(C)nc3c(F)c2O)nc2ccc(N3C[C@@H](C)N[C@@H](C)C3)cc12 [Compound 717, 1-{6-[(3R,5S)-3,5-dimethylpiperazin-1-yl]-2-(7-fluoro-6-hydroxy-2-methylindazol-5-yl)quinazolin-4-yl}ethanone] | < 0.1 µM | A (A represents <100 nM)
21 | < 0.1 µM | < 0.1 µM | < 0.1 µM | CNC(=O)c1nc(-c2cc3cn(C)nc3c(F)c2O)nc2ccc(N3CCC(N4CCC4)CC3)cc12 [Compound 722, 6-[4-(azetidin-1-yl)piperidin-1-yl]-2-(7-fluoro-6-hydroxy-2-methylindazol-5-yl)-N-methylquinazoline-4-carboxamide] | < 0.1 µM | A (A represents <100 nM)
